# ChEMBL document CHEMBL4602622, “Serendipitous discovery of aryl boronic acids as β-lactamase inhibitors” (Bioorg Med Chem Lett, 2020)
# Assay: Inhibition of Pseudomonas aeruginosa AmpC
row,SMILES,IC50
1,C1=NC2(CCc3ccc(-c4ccccc4)cc3C2)CN1 (stereo in doubt; 1),15 µM
2,O=C(c1nc(-c2ccccc2)cs1)N1CCC(c2ccccn2)C1 (stereo in doubt),> 100 µM
3,O=C(c1nc(-c2ccccc2)cs1)N1CCC(c2ccccn2)C1 (stereo in doubt; 2),43 µM
4,C1=NC2(CCc3ccc(-c4ccccc4)cc3C2)CN1 (stereo in doubt),> 100 µM
